Data: patent US20210024981A1, “COMPOSITION FOR DETECTING DSRNAS, COMPRISING MEROCYANINE COMPOUND AND ISOMER THEREOF, AND METHOD FOR PROVIDING INFORMATION FOR DIAGNOSING CANCER, BY USING DSRNA EXPRESSION ANALYSIS” (KOREA ADVANCED INSTITUTE OF SCIENCE AND TECHNOLOGY, priority 2018, published 2021)
Entries after “also recorded” stand apart in the source; their conditions may differ.

Columns and labels:
[1] = tested on: MCF-7 breast cancer cells; assay: dsRNA absorbance change rate after 5-AZA-CdR treatment; type: cell-based; conditions: 5-AZA-CdR 500 nM, day 7 compared to day 0
Method: (§1) To compare the expression level of dsRNA between cancer cells and normal cells, total RNA was extracted by treating TRIsure reagents (Bioline) to 3 types of cancer cell lines (HeLa cervical cancer cells, HCT116 colorectal cancer cells and A549 lung cancer cells) and 2 types of normal cell lines (CCD-986sk cells and RPE-1 cells), respectively. The extracted total RNA (30 μg) was treated with RNase T1 (Worthington Inc.) in a volume of 1/10, and incubated at 37° C. for 30 minutes to remove ssRNA and rRNA. Then, dsRNA was purified using a phenol extraction method. The final concentration of the purified dsRNA was adjusted to 350 μM using tertiary distilled water, to which the spiropyran solution (12 μM, dissolved in tertiary distilled water) was added. After irradiating UV to the mixture, the rate of change in absorbance at 512 nm was measured for 2 minutes. The rate of change in absorbance was calculated in comparison with the control group using tertiary distilled water instead of dsRNA.
(§2) In addition, PANC-1 pancreatic cancer cells, MCF-7 breast cancer cells, A549 lung cancer cells and A375 melanoma cells were treated with 5-AZA-CdR (500 nM), respectively, and cultured for 24 hours. The medium was replaced with fresh medium and the cells were collected on days 0, 1, 3, 5 and 7 to isolate dsRNA. The rate of change in absorbance of dsRNA in cancer cells was measured in the same manner as described in Example 1.

A375 melanoma cells [2] = assay: as above; type: cell-based; conditions: 5-AZA-CdR 500 nM, days 0-7
Method: as §1, §2

[3] = tested on: PANC-1 pancreatic cancer cells; assay: as above; type: cell-based; conditions: 5-AZA-CdR 500 nM, day 7 compared to day 0
Method: as §1, §2

A549 lung cancer cells [4] = assay: as above; type: cell-based; conditions: 5-AZA-CdR 500 nM, days 0-7
Method: as §1, §2

[5] = tested on: ERV (THE1B, MTL2B4, MLT1C49 and MER21C) in HCT116 colorectal cancer cells; assay: RT-PCR (qPCR) to confirm ERV expression; type: cell-based; conditions: 5-AZA-CdR 500 nM
Method: According to a recent study, 5-AZA-CdR has been reported to promote apoptosis by increasing untranslated RNA called ERV (endogenous retroviral element), the dsRNA. Thus, whether the expression of ERV ([…], MTL2B4, MLT1C49 and MER21C genes) was increased by 5-AZA-CdR treatment was investigated.
Total RNA was isolated from the HCT116 colorectal cancer cells treated with 5-AZA-CdR in the same manner as described in Experimental Example <10-1>, to which DNase I was treated, and then cDNA was synthesized using RevertAid reverse transcriptase (Thermo Fisher Scientific). Using the synthesized cDNA as a template, qPCR was performed with the primers in Table 1 below.

[6] = tested on: HeLa cervical cancer cells; assay: Apoptosis observed under a microscope; type: cell-based; conditions: 5-AZA-CdR 500 nM, day 5
[7] = tested on: HeLa cervical cancer cells; assay: dsRNA absorbance change rate after 5-AZA-CdR treatment; type: cell-based; conditions: 5-AZA-CdR 500 nM 24 hours, day 5 vs day 0
Method: as §1
(§3) HCT116 colorectal cancer cells and HeLa cervical cancer cells were treated with 5-AZA-CdR (500 nM), respectively, and cultured for 24 hours. The medium was replaced with fresh medium and the cells were collected on days 0, 1, 3 and 5 to isolate dsRNA. The rate of change in absorbance of dsRNA in cancer cells was measured in the same manner as described in Experimental Example 9.

[8] = tested on: HCT116 colorectal cancer cells; assay: as above; type: cell-based; conditions: 5-AZA-CdR 500 nM 24 hours, days 0, 1, 3 and 5
Method: as §1, §3

[9] = tested on: MCF-7 breast cancer cells; assay: Degree of apoptosis by MTT assay; type: cell-based; conditions: 5-AZA-CdR 500 nM
Method: (§4) HCT116 colorectal cancer cells, PANC-1 pancreatic cancer cells, MCF-7 breast cancer cells, A549 lung cancer cells and A375 melanoma cells were treated with 5-AZA-CdR in the same manner as described in Experimental Example <10-1>, and the degree of apoptosis was measured by MTT assay.

A375 melanoma cells [10] = assay: Degree of apoptosis by MTT assay; type: cell-based; conditions: 5-AZA-CdR 500 nM
Method: as §4

[11] = tested on: PANC-1 pancreatic cancer cells; assay: Degree of apoptosis by MTT assay; type: cell-based; conditions: 5-AZA-CdR 500 nM
Method: as §4

A549 lung cancer cells [12] = assay: Degree of apoptosis by MTT assay; type: cell-based; conditions: 5-AZA-CdR 500 nM
Method: as §4

[13] = tested on: HCT116 colorectal cancer cells; assay: Degree of apoptosis by MTT assay; type: cell-based; conditions: 5-AZA-CdR 500 nM
Method: as §4

[14] = tested on: HCT116 colorectal cancer cells; assay: Apoptosis observed under a microscope; type: cell-based; conditions: 5-AZA-CdR 500 nM, day 5
[15] = tested on: dsRNA (20 bp poly GC and poly AU); assay: Binding of spiropyran (SP) or merocyanine (MC) and dsRNA, UV-Vis spectrometer; conditions: 12 μM solution, 20 bp poly GC and poly AU added, MC after 254 nm UV for 5 minutes
Method: The interaction of spiropyran (SP) or merocyanine (MC) with dsRNA was confirmed using a UV-Vis spectrometer. The spiropyran produced in Example 1 was prepared as a spiropyran solution (12 μM), and dsRNA was prepared by ordering 20 bp poly GC and poly AU from Bioneer Co., Ltd., respectively. After adding 200 μM of poly GC and poly AU to the spiropyran solution, spectral results were obtained using a UV-Vis spectrometer. The spiropyran produced in Example 1 was prepared as a spiropyran solution (12 μM), and dsRNA was prepared by ordering 20 bp poly GC and poly AU from Bioneer Co., Ltd., respectively. After irradiating 254 nm UV to the spiropyran solution for 5 minutes, poly GC and poly AU were added, respectively. Then, spectral results were obtained using a UV-Vis spectrometer.

poly AU and poly GC = assay: Effect of dsRNA on reversibility of SP and MC; type: physicochemical; conditions: 200 μM poly AU or poly GC in sodium ion buffer; UV and 420 nm light alternately, 5 cycles at 1 minute intervals
Method: The SP and MC in the isomer relationship can be converted reversibly to each other by irradiating UV or visible light. To confirm the effect of dsRNA on the reversibility of SP-MC, SP and 200 μM poly AU and poly GC were added to sodium ion buffer, respectively, and absorbance was measured by alternately irradiating the mixture with UV and 420 nm […] light in 5 cycles at 1 minute intervals. At this time, water was used instead of RNA as the control.

| binding to dsRNA (change in UV-Vis absorbance spectrum) [15] | binding to dsRNA (change in UV-Vis absorbance spectrum) ([15]; listed as spiropyran) | Compound | dsRNA expression (rate of change in absorbance) [1] | dsRNA expression (rate of change in absorbance) (A375 melanoma cells [2]) | dsRNA expression (rate of change in absorbance) [3] | dsRNA expression (rate of change in absorbance) (A549 lung cancer cells [4]) | expression level of MER21C, increase compared to day 0 ([5]; day 5) | expression levels of THE1B, MTL2B4, MLT1C49 and MER21C ([5]; days 0 and 1) | expression levels of THE1B, MTL2B4, MLT1C49 and MER21C ([5]; from day 3) | apoptosis [6] | rate of change in absorbance at 512 nm (dsRNA expression) [7] | rate of change in absorbance at 512 nm (dsRNA expression) [8] | growth decreased compared to untreated control [9] | growth compared to untreated control (A375 melanoma cells [10]) | growth decreased compared to untreated control [11] | growth decreased compared to untreated control (A549 lung cancer cells [12]) | growth reduced compared to untreated control [13] | apoptosis [14] | reversibility of SP-MC (poly AU and poly GC) |
| --- | --- | --- | --- | --- | --- | --- | --- | --- | --- | --- | --- | --- | --- | --- | --- | --- | --- | --- | --- |
|  |  | Nc1ncn([C@H]2C[C@H](O)[C@@H](CO)O2)c(=O)n1 [Example 5-AZA-CdR, 5-aza-2′-deoxycytidine] | slightly increased; also recorded: slight increase | no change; also recorded: little change | slightly increased; also recorded: slight increase | no change; also recorded: little change | 100 times | almost unchanged | increased; also recorded: began to increase from day 3 | apoptosis was not observed | almost unchanged; also recorded: almost similar to that of day 0 | increased from day 3; also recorded: gradually increased with time | about 20% | not reduced | about 20% | about 10% | about 40% | apoptosis induced by 5-AZA-CdR was observed |  |
| did not bind to dsRNA | not combined with dsRNA | CC1(C)c2ccccc2N(CCC[N+](C)(C)C)C12C=Cc1cc([N+](=O)[O-])ccc1O2 (stereo not shown) [SP, 1′-(3″-trimethylammoniopropyl)-3′,3′-dimethyl-6-nitrospiro[(2H)-1-benzopyran-2,2′-indoline]iodide] |  |  |  |  |  |  |  |  |  |  |  |  |  |  |  |  | maintained independently from the presence or absence of dsRNA |
